Experimental data reported in publication PMC4813245, “Discovery of Dual ETA/ETB Receptor Antagonists from Traditional Chinese Herbs through in Silico and in Vitro Screening” (International Journal of Molecular Sciences, 2016).
Read-outs that look alike come from different tables or passages of the source. Non-standard residues stand in square brackets, D forms with d. Residues, ends and D or L forms follow the SMILES beside them.

Columns and labels:
ETB receptor (ETBR) = biological target: T1, ETB receptor (ETBR) (Homo sapiens, UniProt P24530); experiment: ET-1-induced intracellular calcium mobilization (Fluo-4) in HEK293/ETBR cells, antagonist mode; assay type: cell-based
T1 construct: gene EDNRB
T1 sequence (P24530 27-442): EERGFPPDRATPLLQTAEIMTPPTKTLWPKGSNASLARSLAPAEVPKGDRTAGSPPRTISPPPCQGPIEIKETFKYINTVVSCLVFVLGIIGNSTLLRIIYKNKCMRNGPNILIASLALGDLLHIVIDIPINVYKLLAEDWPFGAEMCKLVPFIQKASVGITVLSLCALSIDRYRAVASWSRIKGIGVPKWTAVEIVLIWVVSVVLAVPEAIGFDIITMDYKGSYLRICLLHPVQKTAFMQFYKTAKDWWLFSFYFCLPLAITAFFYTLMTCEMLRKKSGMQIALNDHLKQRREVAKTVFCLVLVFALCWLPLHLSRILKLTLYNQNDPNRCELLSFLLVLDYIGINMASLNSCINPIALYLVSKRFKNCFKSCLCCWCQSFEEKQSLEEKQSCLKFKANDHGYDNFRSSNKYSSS

ETA receptor (ETAR) = biological target: T2, ETA receptor (ETAR) (Homo sapiens, UniProt P25101); experiment: ET-1-induced intracellular calcium mobilization (Fluo-4) in HEK293/ETAR cells, antagonist mode; assay type: cell-based
T2 construct: gene EDNRA
T2 sequence (P25101 21-427): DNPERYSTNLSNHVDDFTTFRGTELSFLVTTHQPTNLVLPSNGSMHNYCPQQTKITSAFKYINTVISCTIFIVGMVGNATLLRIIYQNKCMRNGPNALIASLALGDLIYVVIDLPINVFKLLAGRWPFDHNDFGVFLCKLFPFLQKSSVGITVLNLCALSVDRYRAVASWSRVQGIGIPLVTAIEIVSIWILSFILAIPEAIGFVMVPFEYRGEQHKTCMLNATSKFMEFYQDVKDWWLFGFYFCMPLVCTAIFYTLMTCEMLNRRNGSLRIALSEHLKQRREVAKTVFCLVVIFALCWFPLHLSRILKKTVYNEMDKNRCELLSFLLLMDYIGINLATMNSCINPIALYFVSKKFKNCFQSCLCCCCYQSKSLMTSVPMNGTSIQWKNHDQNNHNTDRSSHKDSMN

Structure (SMILES)	IC50 (ETB receptor (ETBR)) [µM]	IC50 (ETA receptor (ETAR)) [µM]	IC50 (ETB receptor (ETBR); read-out: IC50) [µM]
COc1cccc2c1cc([N+](=O)[O-])c1c(C(=O)O)cc3c(c12)OCO3 [Aristolochic acid A]	7.4	7.91	
CC(C)C[C@@H]1NC(=O)[C@@H](C(C)C)NC(=O)[C@@H]2CCCN2C(=O)[C@@H](CC(=O)O)NC(=O)[C@@H](Cc2c[nH]c3ccccc23)NC1=O [BQ-123] (cyclo(L[dW][dD]P[dV]))		0.00027	
CCCC[C@@H](NC(=O)[C@@H](Cc1cn(C(=O)OC)c2ccccc12)NC(=O)[C@H](CC(C)(C)C)NC(=O)N1[C@H](C)CCC[C@@H]1C)C(=O)O [BQ-788]			5e-05
